The values that follow are results of earlier work, collected in US20230372421A1, “IMMATURE POMEGRANATE EXTRACT FORMULATIONS” (CONSIGLIO NAZIONALE DELLE RICERCHE, priority 2020, published 2023).

This series deals with cells of neuronal origin. Particulars: Jin, Yu, Wang & Xu, 2016.

In the case of `O=C1O[C@H]2[C@H](OC(=O)c3cc(O)c(O)c(O)c3)O[C@@H]3COC(=O)c4cc(O)c(O)c(O)c4-c4c(cc(O)c(O)c4O)C(=O)O[C@H]2[C@@H]3OC(=O)c2cc(O)c(O)c3c2C2C1=CC(=O)C(O)(O)C2(O)O3` (stereo partly shown) [granatin B], the anticancer properties entry is “important anticancer properties”.
